According to patent US11173151B2, “Substituted triazole derivatives and uses thereof” (BAYER AKTIENGESELLSCHAFT, priority 2017, dated 2021):

How the values were obtained:
[1] = target: T1, human V1a receptor (Homo sapiens, UniProt P37288); assay: Cellular in vitro assay for determining vasopressin receptor activity, V1a receptor cell line (CHO, aequorin luminescence); assay type: cell-based; conditions: for IC50: CHO cell line transfected with human V1a receptor, [Arg]-vasopressin at EC50 concentration, read-out: IC50 hV1a; for ratio IC50 hV2/hV1a: selectivity ratio IC50 hV2 / IC50 hV1a
T1 construct: expressed in transfected cells; host or cells: CHO K1 (ATCC), also stably transfected with a modified aequorin
How it was run: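 Antagonism is measured in stable CHO K1 transfectants coexpressing the Gαq-coupled receptor and a calcium-sensitive aequorin photoprotein. Agonist challenge uses [Arg]-vasopressin at EC50 after a 10-minute compound exposure; IC50 values come from the luminescence signal.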

[2] = target: T2, human V2 receptor (Homo sapiens, UniProt P30518); assay: Cellular in vitro assay for determining vasopressin receptor activity, V2 receptor cell line (CHO, CRE-luciferase); assay type: cell-based; conditions: CHO cell line transfected with human V2 receptor; [Arg8]-vasopressin at EC50 concentration; read-out: IC50 hV2
T2 construct: expressed in transfected cells; host or cells: CHO K1 (ATCC) expressing firefly luciferase under a CRE-responsive promoter
T2 sequence (P30518 whole entry): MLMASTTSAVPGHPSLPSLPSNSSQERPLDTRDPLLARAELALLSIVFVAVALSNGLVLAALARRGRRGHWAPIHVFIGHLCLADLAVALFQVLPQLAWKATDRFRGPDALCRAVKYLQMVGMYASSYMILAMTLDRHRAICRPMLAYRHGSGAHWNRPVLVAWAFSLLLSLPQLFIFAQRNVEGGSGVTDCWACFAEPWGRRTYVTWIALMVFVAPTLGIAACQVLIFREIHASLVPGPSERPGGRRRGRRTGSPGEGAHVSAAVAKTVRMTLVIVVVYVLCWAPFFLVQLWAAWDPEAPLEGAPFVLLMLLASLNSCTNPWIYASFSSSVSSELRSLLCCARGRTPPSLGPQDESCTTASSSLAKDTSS

T1 sequence (P37288 whole entry): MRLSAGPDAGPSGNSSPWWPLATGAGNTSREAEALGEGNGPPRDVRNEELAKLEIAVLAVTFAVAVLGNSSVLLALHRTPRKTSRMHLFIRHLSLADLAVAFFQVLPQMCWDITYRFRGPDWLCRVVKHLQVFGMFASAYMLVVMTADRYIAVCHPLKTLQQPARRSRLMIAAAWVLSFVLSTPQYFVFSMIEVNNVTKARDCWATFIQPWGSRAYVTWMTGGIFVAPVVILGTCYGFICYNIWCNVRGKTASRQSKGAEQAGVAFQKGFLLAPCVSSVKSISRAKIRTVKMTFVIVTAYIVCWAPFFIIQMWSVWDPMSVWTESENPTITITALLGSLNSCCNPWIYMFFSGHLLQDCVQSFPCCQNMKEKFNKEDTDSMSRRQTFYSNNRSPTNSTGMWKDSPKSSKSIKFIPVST

| IC50 [1] [nM] | ratio IC50 hV2/hV1a [1] | IC50 [2] [nM] | Structure (SMILES) |
| --- | --- | --- | --- |
| 295 | 2.3 | 665 | O=C(NC1CC1)c1ccncc1-n1nc(Cn2nc(-c3ccc(Cl)cc3)n(C[C@H](O)C(F)(F)F)c2=O)nc1C(=O)N1CCS(=O)(=O)CC1 [Example 520, 3-{3-({3-(4-Chlorophenyl)-5-oxo-4-[(2S)-3,3,3-trifluoro-2-hydroxypropyl]-4,5-dihydro-1H-1,2,4-triazol-1-yl}methyl)-5-[(1,1-dioxidothiomorpholin-4-yl)carbonyl]-1H-1,2,4-triazol-1-yl}-N-cyclopropylpyridine-4-carboxamide] |
| 6250 | 0.1 | 885 | CC1(NC(=O)c2ccncc2-n2nc(Cn3nc(-c4ccc(Cl)cc4)n(C[C@H](O)C(F)(F)F)c3=O)nc2C(=O)N2CCS(=O)(=O)CC2)CC1 [Example 521, 3-{3-({3-(4-Chlorophenyl)-5-oxo-4-[(2S)-3,3,3-trifluoro-2-hydroxypropyl]-4,5-dihydro-1H-1,2,4-triazol-1-yl}methyl)-5-[(1,1-dioxidothiomorpholin-4-yl)carbonyl]-1H-1,2,4-triazol-1-yl}-N-(1-methylcyclopropyl)pyridine-4-carboxamide] |
| 4650 | 0.7 | 3450 | O=C1CN(C(=O)c2nc(Cn3nc(-c4ccc(Cl)cc4)n(C[C@H](O)C(F)(F)F)c3=O)nn2-c2ncccc2C(=O)NCC(F)(F)F)CCN1 [Example 524, 2-{3-({3-(4-Chlorophenyl)-5-oxo-4-[(2S)-3,3,3-trifluoro-2-hydroxypropyl]-4,5-dihydro-1H-1,2,4-triazol-1-yl}methyl)-5-[(3-oxopiperazin-1-yl)carbonyl]-1H-1,2,4-triazol-1-yl}-N-(2,2,2-trifluoroethyl)pyridine-3-carboxamide] |
| 9400 | 0.7 | 6550 | CC1(NC(=O)c2cccnc2-n2nc(Cn3nc(-c4ccc(Cl)cc4)n(C[C@H](O)C(F)(F)F)c3=O)nc2C(=O)N2CCNC(=O)C2)CC1 [Example 525, 2-{3-({3-(4-Chlorophenyl)-5-oxo-4-[(2S)-3,3,3-trifluoro-2-hydroxypropyl]-4,5-dihydro-1H-1,2,4-triazol-1-yl}methyl)-5-[(3-oxopiperazin-1-yl)carbonyl]-1H-1,2,4-triazol-1-yl}-N-(1-methylcyclopropyl)pyridine-3-carboxamide] |
| 75.5 | 10.3 | 780 | O=C(NCC(F)(F)F)c1cccnc1-n1nc(Cn2nc(-c3ccc(Cl)cc3)n(C[C@H](O)C(F)(F)F)c2=O)nc1C(=O)N1CCS(=O)(=O)CC1 [Example 528, 2-{3-({3-(4-Chlorophenyl)-5-oxo-4-[(2S)-3,3,3-trifluoro-2-hydroxypropyl]-4,5-dihydro-1H-1,2,4-triazol-1-yl}methyl)-5-[(1,1-dioxidothiomorpholin-4-yl)carbonyl]-1H-1,2,4-triazol-1-yl}-N-(2,2,2-trifluoroethyl)pyridine-3-carboxamide] |
| 97.5 | 29.7 | 2900 | O=C(NCCC(F)(F)F)c1cccnc1-n1nc(Cn2nc(-c3ccc(Cl)cc3)n(C[C@H](O)C(F)(F)F)c2=O)nc1C(=O)N1CCS(=O)(=O)CC1 [Example 529, 2-{3-({3-(4-Chlorophenyl)-5-oxo-4-[(2S)-3,3,3-trifluoro-2-hydroxypropyl]-4,5-dihydro-1H-1,2,4-triazol-1-yl}methyl)-5-[(1,1-dioxidothiomorpholin-4-yl)carbonyl]-1H-1,2,4-triazol-1-yl}-N-(3,3,3-trifluoropropyl)pyridine-3-carboxamide] |
| 530 | 9.9 | 5250 | O=C(NC1CC1)c1cccnc1-n1nc(Cn2nc(-c3ccc(Cl)cc3)n(C[C@H](O)C(F)(F)F)c2=O)nc1C(=O)N1CCS(=O)(=O)CC1 [Example 530, 2-{3-({3-(4-Chlorophenyl)-5-oxo-4-[(2S)-3,3,3-trifluoro-2-hydroxypropyl]-4,5-dihydro-1H-1,2,4-triazol-1-yl}methyl)-5-[(1,1-dioxidothiomorpholin-4-yl)carbonyl]-1H-1,2,4-triazol-1-yl}-N-cyclopropylpyridine-3-carboxamide] |
| 96.5 | 29.5 | 2850 | CC1(NC(=O)c2cccnc2-n2nc(Cn3nc(-c4ccc(Cl)cc4)n(C[C@H](O)C(F)(F)F)c3=O)nc2C(=O)N2CCS(=O)(=O)CC2)CC1 [Example 531, 2-{3-({3-(4-Chlorophenyl)-5-oxo-4-[(2S)-3,3,3-trifluoro-2-hydroxypropyl]-4,5-dihydro-1H-1,2,4-triazol-1-yl}methyl)-5-[(1,1-dioxidothiomorpholin-4-yl)carbonyl]-1H-1,2,4-triazol-1-yl}-N-(1-methylcyclopropyl)pyridine-3-carboxamide] |
| 180 | 20.1 | 3620 | CC(C)(N)CNC(=O)c1nc(Cn2nc(-c3ccc(Cl)cc3)n(C[C@H](O)C(F)(F)F)c2=O)nn1-c1cnccc1C(=O)NCC(F)(F)F [Example 534, 3-{5-[(2-Amino-2-methylpropyl)carbamoyl]-3-({3-(4-chlorophenyl)-5-oxo-4-[(2S)-3,3,3-trifluoro-2-hydroxypropyl]-4,5-dihydro-1H-1,2,4-triazol-1-yl}methyl)-1H-1,2,4-triazol-1-yl}-N-(2,2,2-trifluoroethyl)pyridine-4-carboxamide] |
